Test results taken from patent publication US11319324B2, “Pyrazolo-pyrrolo-pyrimidine-dione derivatives as P2X3 inhibitors” (Bayer Aktiengesellschaft, priority 2017, dated 2022).

Experiments:
Type in all cases: cell-based
human P2X3 receptor [1] = molecular target: T1, human P2X3 receptor (Homo sapiens, UniProt P56373); assay: Intracellular calcium measurement to assess antagonist activity at human P2X3 receptors (hP2X3 FLIPR); set-up: expressed in transfected cells; host or cells: human astrocytoma 1321N1 (1312N1 [sic]); settings: head prints (1321N1); read-out: 1) hP2X3 IC50 [nM] (1321N1)
T1 sequence (P56373 1-397): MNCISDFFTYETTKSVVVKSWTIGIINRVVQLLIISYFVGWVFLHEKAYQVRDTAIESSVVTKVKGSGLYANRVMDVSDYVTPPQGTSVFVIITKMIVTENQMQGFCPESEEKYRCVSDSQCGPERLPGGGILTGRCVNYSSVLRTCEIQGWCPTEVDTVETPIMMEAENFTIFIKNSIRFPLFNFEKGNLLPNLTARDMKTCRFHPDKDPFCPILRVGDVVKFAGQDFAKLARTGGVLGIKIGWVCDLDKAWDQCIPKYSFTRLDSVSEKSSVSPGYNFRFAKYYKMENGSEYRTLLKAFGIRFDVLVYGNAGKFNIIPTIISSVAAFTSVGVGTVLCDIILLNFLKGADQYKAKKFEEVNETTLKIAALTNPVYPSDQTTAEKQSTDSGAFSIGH
Description: 1) Intracellular Calcium Measurement to Assess Antagonist Activity at Human P2X3 Receptors (hP2X3 FLIPR)
A fluorescent imaging plate reader (FLEX/FLIPR station; Molecular Devices) was used to monitor intracellular calcium levels using the calcium-chelating dye Fluo-4 (Molecular Probes). The excitation and emission wavelengths used to monitor fluorescence were 470-495 nm and 515-575 nm, respectively. The human astrocytoma […] cells expressing purinergic receptors P2X3 (human) were plated at a density of 15,000 cells/well in collagen—coated 384-well plates approximately 20 hours before beginning the assay. […] The dye supernatant was removed and replaced with 45 μl probenecid buffer (Hank's balanced salt solution, 20 mM HEPES, 0.5 mM CaCl2, 0.5 mM MgCl2, 0.1% BSA, 5 mM probenecid, 10 mM D-glucose monohydrate, pH=7.4). The test compounds were added in a volume of 5 μl and allowed to incubate for 30 min at 37° C. The final assay DMSO concentration is 1%. […] The fluorescence was measured for an interval of 90 sec at 2 sec intervals and analyzed based on the increase in peak relative fluorescence units (RFU) compared to the basal fluorescence. Peak fluorescence was used to determine the response to agonist obtained at each concentration of test compound by the following equation: Response=100*(RFU(test compound)−RFU(control))/(RFU(DMSO)−RFU(control))
The Examples were tested in triplicates per plate and mean values were plotted in Excel XLFit to determine IC50 values at the human P2X3 and human P2X2/3 receptors, percentage of maximal inhibition and the Hill coefficients.

human P2X3 receptor [2] = molecular target: T1, human P2X3 receptor; assay: Intracellular calcium measurement to assess antagonist activity at human P2X3 receptors (hP2X3 CHO), photina luminescence; set-up: expressed in transfected cells; host or cells: Chinese hamster ovary (CHO) cells; settings: column 2), CHO cells, agonist α,β-methylene-ATP at EC50
Summary of the method: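 Antagonism read as lowered photina luminescence after agonist stimulation in recombinant hP2X3/photina CHO cells. Cells seeded one day earlier (30 °C) and reconstituted with 5 μg/ml coelenterazine in 2 mM Ca-tyrode buffer for 3 h at 37 °C before measurement.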

human P2X3 receptor [3] = molecular target: T1, human P2X3 receptor; assay: Intracellular calcium measurement, antagonist activity at human P2X3 receptors (hP2X3 1321N1), Fluo8; set-up: expressed in transfected cells; host or cells: human astrocytoma 1321N1 (1312N1 [sic]); settings: column 3); 1321N1 cells, human P2X3, Fluo8, agonist ATP at EC50
Summary of the method: (§1)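 Antagonism was assessed by decrease of the Fluo8 calcium signal after ATP challenge, with ATP dosed at the EC50 of whichever receptor was tested. Stable 1321N1 astrocytoma lines expressed either human P2X3 or both P2X2 and P2X3, and were dye-loaded 60 min before a 10 min compound incubation.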

human P2X2/3 receptors = molecular target: T2, human P2X2/3 receptors (Homo sapiens, UniProt P56373+Q9UBL9); assay: Intracellular calcium measurement, antagonist activity at human P2X2/3 receptors (hP2X23 1321N1), Fluo8; settings: for IC50: column 4); 1321N1 cells, human P2X2/3, Fluo8, agonist ATP at EC50; read-out: 4) hP2X2/3 IC50 [nM] (1321N1); for hP2X23/hP2X3* Selectivity (1321N1): ratio of column 4) hP2X2/3 to column 3) hP2X3, 1321N1
T2 construct: expressed in transfected cells; host or cells: human astrocytoma 1321N1 (1312N1 [sic])
T2 sequence (P56373 1-397): T1 sequence (P56373 1-397)
T2 sequence (Q9UBL9 1-471): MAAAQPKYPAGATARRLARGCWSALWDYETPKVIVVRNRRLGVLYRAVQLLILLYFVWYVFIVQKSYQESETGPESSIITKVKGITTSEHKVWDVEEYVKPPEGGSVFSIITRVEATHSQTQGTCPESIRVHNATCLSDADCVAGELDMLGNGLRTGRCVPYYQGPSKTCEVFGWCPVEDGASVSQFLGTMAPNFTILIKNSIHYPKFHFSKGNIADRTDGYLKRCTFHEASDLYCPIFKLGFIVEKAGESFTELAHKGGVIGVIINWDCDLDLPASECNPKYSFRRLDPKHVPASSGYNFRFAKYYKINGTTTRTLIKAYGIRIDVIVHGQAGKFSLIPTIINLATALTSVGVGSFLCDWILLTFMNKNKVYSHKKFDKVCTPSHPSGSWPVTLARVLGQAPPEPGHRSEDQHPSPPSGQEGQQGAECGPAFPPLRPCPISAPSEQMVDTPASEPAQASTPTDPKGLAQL
Summary of the method: as §1

| Compound | IC50 (human P2X3 receptor [1]) | IC50 (human P2X3 receptor [2]) | IC50 (human P2X3 receptor [3]) | IC50 (human P2X2/3 receptors) | hP2X23/hP2X3* Selectivity (1321N1) (human P2X2/3 receptors) |
| --- | --- | --- | --- | --- | --- |
| COC[C@@H](C)N1Cc2c(n(CC(=O)Nc3ccc(F)cn3)c3cc(C(C)(C)C)nn3c2=O)C1=O [Example 43] | 19 nM | 20 nM | 31 nM | 6500 nM | 213 |
| Cc1ccc(NC(=O)Cn2c3c(c(=O)n4nc(C(C)(C)C)cc24)CN([C@@H](C)C(C)C)C3=O)nc1 [Example 11] | 376 nM | 750 nM | 657 nM | > 20600 nM | >31 |
| CC(C)[C@H](C)N1Cc2c(n(CC(=O)Nc3ccc(Cl)cn3)c3cc(C(C)(C)C)nn3c2=O)C1=O [Example 12] | 59 nM | 110 nM | 225 nM | 8800 nM | 39 |
| CC[C@H](C)N1Cc2c(n(CC(=O)Nc3ccc(Cl)cn3)c3cc(C(F)(F)F)nn3c2=O)C1=O [Example 22] | 56 nM | 81 nM | 82 nM | 2850 nM | 35 |
| Cc1ccc(NC(=O)Cn2c3c(c(=O)n4nc(C(C)(C)C)cc24)CN(C2COC2)C3=O)nc1 [Example 47] | 1220 nM | 1100 nM | – | – | – |
| CC(C)N1Cc2c(n(CC(=O)Nc3ccc(F)cn3)c3cc(C4CCOCC4)nn3c2=O)C1=O [Example 58] | – | 24 nM | 36 nM | 9850 nM | 277 |
| CC(C)N1Cc2c(n(CC(=O)Nc3ccc(F)cn3)c3cc(C4CCOC4)nn3c2=O)C1=O (racemic) [Example 228, 2-{5,8-dioxo-2-[(±)-oxolan-3-yl]-6-(propan-2-yl)-5,6,7,8-tetrahydro-4H-pyrazolo[1,5-a]pyrrolo[3,4-d]pyrimidin-4-yl}-N-(5-fluoropyridin-2-yl)acetamide] | – | 95 nM | 20 nM | > 23500 nM | >1175 |
| Cc1cc2n(CC(=O)Nc3ccc(Cl)cn3)c3c(c(=O)n2n1)CN(C(C)C)C3=O [Example 42] | 35 nM | – | – | – | – |
| CC(C)N1Cc2c(n(CC(=O)Nc3ccc(F)cn3)c3cc(C4CCN(C)C4)nn3c2=O)C1=O (racemic) [Example 249, N-(5-fluoropyridin-2-yl)-2-{2-[(±)-1-methylpyrrolidin-3-yl]-5,8-dioxo-6-(propan-2-yl)-5,6,7,8-tetrahydro-4H-pyrazolo[1,5-a]pyrrolo[3,4-d]pyrimidin-4-yl}acetamide] | – | 305 nM | 109 nM | 9200 nM | 85 |
| CC(C)N1Cc2c(n(CC(=O)Nc3ccc(F)cn3)c3cc(C(=O)NCC4CC4)nn3c2=O)C1=O [Example 187] | – | 21 nM | 21 nM | 2300 nM | 112 |
| COC[C@H](C)N1Cc2c(n(CC(=O)Nc3ccc(F)cn3)c3cc(-c4cc(C)ncc4C)nn3c2=O)C1=O [Example 158] | – | 10 nM | 3 nM | 1400 nM | 424 |

Further lines, results first:

| IC50 (human P2X3 receptor [1]) | IC50 (human P2X3 receptor [2]) | IC50 (human P2X3 receptor [3]) | IC50 (human P2X2/3 receptors) | hP2X23/hP2X3* Selectivity (1321N1) (human P2X2/3 receptors) | Compound |
| --- | --- | --- | --- | --- | --- |
| 377 nM | 394 nM | 370 nM | > 32000 nM | >86 | CC(C)N1Cc2c(n(CC(=O)Nc3ccc(F)cn3)c3ccnn3c2=O)C1=O [Example 45] |
| 16 nM | 39 nM | 34 nM | 8200 nM | 241 | COC[C@@H](C)N1Cc2c(n(CC(=O)Nc3ccc(F)cn3)c3cc(C(C)C)nn3c2=O)C1=O [Example 44] |
| 4 nM | – | – | – | – | CC(C)(C)c1cc2n(CC(=O)Nc3ccc(F)cn3)c3c(c(=O)n2n1)CN(CCOCc1ccccc1)C3=O [Example 34, 2-{6-[2-(Benzyloxy)ethyl]-2-tert-butyl-5,8-dioxo-5,6,7,8-tetrahydro-4H-pyrazolo[1,5-a]pyrrolo[3,4-d]pyrimidin-4-yl}-N-(5-fluoropyridin-2-yl)acetamide] |
| – | 13 nM | 3 nM | 1800 nM | 581 | Cc1cc(-c2cc3n(CC(=O)Nc4ccc(F)cn4)c4c(c(=O)n3n2)CN(C(C)C)C4=O)c(C)cn1 [Example 159] |
| – | 21 nM | 8 nM | 765 nM | 96 | Cc1ccc(-c2cc3n(CC(=O)Nc4ccc(F)cn4)c4c(c(=O)n3n2)CN(C(C)C)C4=O)cn1 [Example 154] |
| – | 370 nM | 665 nM | > 32000 nM | >48 | CCc1cc2n(CC(=O)Nc3ccc(F)cn3)c3c(c(=O)n2n1)CN(CC1CCOCC1)C3=O [Example 83] |
| – | 64 nM | 135 nM | 6550 nM | 49 | CCc1cc2n(CC(=O)Nc3ccc(F)cn3)c3c(c(=O)n2n1)CN(CC1CCN(C(=O)OC(C)(C)C)CC1)C3=O [Example 89] |
| – | 133 nM | 280 nM | > 32000 nM | >114 | CCc1cc2n(CC(=O)Nc3ccc(F)cn3)c3c(c(=O)n2n1)CN(CCCOC)C3=O [Example 109] |
| – | 29 nM | 89 nM | 4400 nM | 50 | CC(C)N1Cc2c(n(CC(=O)Nc3ccc(F)cn3)c3cc(Br)nn3c2=O)C1=O [Example 75, 2-[2-bromo-5,8-dioxo-6-(propan-2-yl)-5,6,7,8-tetrahydro-4H-pyrazolo[1,5-a]pyrrolo[3,4-d]pyrimidin-4-yl]-N-(5-fluoropyridin-2-yl)acetamide] |
| – | 81 nM | 56 nM | 5450 nM | 98 | CCc1cc2n(CC(=O)Nc3ccc(Cl)cn3)c3c(c(=O)n2n1)CN(C(C)C)C3=O [Example 66] |
| 125 nM | – | – | – | – | COCC(C)N1Cc2c(n(CC(=O)Nc3ccc(F)cn3)c3cc(CO)nn3c2=O)C1=O (racemic) [Example 141, N-(5-fluoropyridin-2-yl)-2-{2-(hydroxymethyl)-6-[(±)-1-methoxypropan-2-yl]-5,8-dioxo-5,6,7,8-tetrahydro-4H-pyrazolo[1,5-a]pyrrolo[3,4-d]pyrimidin-4-yl}acetamide] |
| – | 18 nM | 17 nM | 5000 nM | 294 | CCc1cc2n(CC(=O)Nc3ccc(F)cn3)c3c(c(=O)n2n1)CN(Cc1cccnc1)C3=O [Example 107] |
| – | 108 nM | 141 nM | > 20600 nM | >146 | CCc1cc2n(CC(=O)Nc3ccc(F)cn3)c3c(c(=O)n2n1)CN(C[C@@H]1COCCN1C(C)C)C3=O [Example 260] |
